# In paper PMC8691691 (ACS Chemical Neuroscience, 2021):
# Residue numbers refer to the chain shown, from its start. Like-named read-outs stand apart in the source and are kept apart here.
# Columns and labels:
# [1] = target: T1, GlyT2 D635E mutant (Rattus norvegicus, UniProt P58295, D635E); experiment: [3H]glycine transport by GlyT2 mutant in COS7 cells; type: cell-based; conditions: read-out: IC50 (Table S1)
# T1 construct: expressed in transfected cells; host or cells: COS7
# T1 sequence (P58295 1-799 D635E): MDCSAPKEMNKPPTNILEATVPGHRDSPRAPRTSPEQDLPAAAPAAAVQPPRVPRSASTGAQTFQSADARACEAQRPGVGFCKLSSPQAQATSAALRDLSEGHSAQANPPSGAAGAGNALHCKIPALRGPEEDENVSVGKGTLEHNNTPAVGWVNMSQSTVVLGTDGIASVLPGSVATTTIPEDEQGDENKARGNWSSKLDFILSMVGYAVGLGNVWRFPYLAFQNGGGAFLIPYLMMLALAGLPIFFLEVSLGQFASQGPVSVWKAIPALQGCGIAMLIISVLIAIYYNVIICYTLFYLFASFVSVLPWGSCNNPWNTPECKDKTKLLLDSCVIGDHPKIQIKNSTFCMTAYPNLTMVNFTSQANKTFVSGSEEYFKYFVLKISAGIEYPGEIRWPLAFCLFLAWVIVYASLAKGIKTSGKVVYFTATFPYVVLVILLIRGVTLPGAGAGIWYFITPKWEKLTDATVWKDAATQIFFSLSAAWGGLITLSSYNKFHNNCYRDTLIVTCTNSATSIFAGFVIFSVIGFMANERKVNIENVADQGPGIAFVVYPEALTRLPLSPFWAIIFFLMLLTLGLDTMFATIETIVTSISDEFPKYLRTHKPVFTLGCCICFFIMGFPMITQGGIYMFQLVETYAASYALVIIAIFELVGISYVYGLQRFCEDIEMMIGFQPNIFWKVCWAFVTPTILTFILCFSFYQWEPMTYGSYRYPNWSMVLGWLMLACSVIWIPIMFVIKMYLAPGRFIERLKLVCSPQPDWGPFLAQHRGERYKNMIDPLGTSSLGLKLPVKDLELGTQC
# [2] = target: T2, GlyT2 A639C mutant (Rattus norvegicus, UniProt P58295, A639C); experiment: as above; type: cell-based
# T2 construct: expressed in transfected cells; host or cells: COS7
# T2 sequence (P58295 1-799 A639C): T1 sequence (P58295 1-799 D635E) with E635D, A639C
# [3] = test system: thermal, mechanical, and chemical stimulations; conditions: rat acute pain model; cited from earlier work
# [4] = test system: allodynia; conditions: nerve ligation injury, streptozotocin-induced diabetic pain, complete Freund's adjuvant-induced inflammatory pain; cited from earlier work
# [5] = test system: GlyT2; conditions: cited from earlier work
IC50 [1],IC50 ([2]; read-out: IC50 (Table S1)),SMILES,"effect on thermal, mechanical, and chemical stimulations [3]",IC50 [2],effect on allodynia [4],reversibility of GlyT2 inhibition [5]
0.03 ± 0.004 µM,0.022 ± 0.004 µM,N[C@@H](COC(c1cccc(F)c1)c1ccccc1OCc1ccccc1)C(=O)O (stereo partly drawn) [ALX1393],antinociceptive effect,–,–,–
–,–,"COc1cc(C(=O)NCC2(N(C)C)CCCC2)cc(OC)c1OCc1ccccc1 [ORG25543, N-[[1-(dimethylamino)cyclopentyl]methyl]-3,5-dimethoxy-4-(phenylmethoxy)benzamide]",–,0.051 ± 0.002 µM,reduces allodynia,irreversible GlyT2 inhibitor
